Results taken from paper PMC6493465 (Oncotarget, 2019).
Read-outs that look alike come from different tables or passages of the source. Blank lines part the entries; values can stand above or below the compound they belong to.

Assays:
[1] = system: MOLM-13 cells; assay: Annexin-V staining (apoptosis), MOLM-13; type: cell-based, human; conditions: 48 hours; for percentage of annexin V-positive cells: control 4.1%
Method: MV4-11 cells were seeded in 12-well plates at a concentration of 2 × 10^5 cells/well and cultured overnight. […] MOLM-13 cells were seeded in 12-well plates at a concentration of 1 × 10^5 cells/well and cultured overnight.
Cells were harvested and incubated with Guava® Nexin Reagent (Merck Millipore Corporation, Billerica, MA). Annexin-V-positive cells were assessed using a Guava® PCA microcytometer (Merck Millipore Corporation); the percentage of annexin-V-positive cells (2000 cells per sample) was analyzed using CytoSoft™ software (Merck Millipore Corporation). Mean percentages of annexin-V-positive cells were derived from three independent experiments.

[2] = system: MCL-1, BCL2L10, survivin and cPARP in MOLM-13 cells; assay: Western blot analysis of anti-apoptotic protein expression, MOLM-13; type: cell-based, human; conditions: MOLM-13, 24-hour treatment; gilteritinib 30 nM, AraC 100 nM, IDR 3 nM, Aza 1000 nM
Method: Cell lysates were prepared in radioimmunoprecipitation assay buffer (Thermo Fisher Scientific Inc., Rockford, IL) supplemented with phosphatase (Thermo Fisher Scientific Inc.) and protease inhibitors (Merck, Billerica, MA), electrophoresed on 4%–15% gels, and subsequently transferred to polyvinylidene difluoride membranes. The membranes were blocked using Blocking One (Nacalai Tesque Inc., Kyoto, Japan) for 1 hour and then incubated overnight with primary antibodies to MCL-1, BCL210, cPARP (all from Cell Signaling Technology, Danvers, MA, USA), survivin (R&D Systems, Inc., Minneapolis, MN), and α-actin (MilliporeSigma, Burlington, MA). The membranes were washed with TBS Tween-20 (TBS-T) buffer and incubated with appropriate horseradish peroxidase-linked secondary antibodies (Cell Signaling Technology Japan K.K.) for 1 hour at room temperature. After washing the membranes in TBS-T buffer, enhanced chemiluminescence Western Blotting Detection Reagent ECL-prime (GE Healthcare, Fairfield, CT) was applied. Signals were detected with a charge-coupled device camera (ImageQuant LAS4000; GE Healthcare); signal intensity was quantified using ImageQuant™ TL software (GE Healthcare).

[3] = Pharmacokinetic assays (plasma and tumor) in nude mice xenografted with MV4-11 cells; type: in vivo, mouse; conditions: for AUC24 ratio: combination versus the other group; for Cmax / Tmax / AUC: nude, mouse; for AUC: read-out: AUC24
Method: Plasma samples were prepared by centrifugation (n=3 per group; one sample in the combination group was excluded due to improper handling). […] These assays were conducted by Astellas Research Technologies Co., Ltd. under the guidance of Analysis & Pharmacokinetics Research Laboratories, Astellas Pharma, Inc., or by Nemoto Science Co., Ltd. (Ibaraki, Japan). […] Body weight and tumor assessments obtained on with MV4-11 cells received one of the following Day −1 were designated as Day 0 (baseline) measurements. combination treatments: 1. […] The percent tumor regression was calculated using the formula: […]

[4] = system: MOLM-13 cells; assay: Antitumor effects in mice xenografted with MOLM-13 cells; type: in vivo, mouse; conditions: MOLM-13 xenograft
Method: Four or five-week-old male nude mice (CanN.Cg-Foxn1nu/Crl/Crlj[nu/nu]; Charles River Laboratories Japan, Inc., Kanagawa, Japan) were maintained under specific pathogen-free conditions and received a standard diet and water supply throughout the study. All animal experimental procedures were performed in accordance with the Animal Ethics Committee of Astellas Pharma, Inc. For in vivo experiments, suspensions of MV4-11 and MOLM-13 cells in PBS at a concentration of 1 × 10^8 cells/mL were mixed with an equivalent volume of Matrigel® Basement Membrane Matrix, resulting in a final cell concentration of 5 × 10^7 cells/mL. The cells were subcutaneously injected into the flanks of mice at a concentration of 5 × 10^6 cells/0.1 mL/mouse. After tumor establishment, mice were divided into groups with similar mean tumor volume across groups.
Dosing volumes were 10 mL/kg for oral and intraperitoneal (IP) administration, and 5 or 10 mL/kg for intravenous (IV) administration. Treatment was administered once daily on designated days. The first day of treatment was designated as Day 0 and observation continued until Day 20 or 21 for mice xenografted with MV4-11 cells and Day 16 for mice xenografted with MOLM-13 cells. In mice xenografted with MV4-11 cells for experiments involving triple combination treatment, the control group received oral administration of vehicle (0.5% methylcellulose, Days 0–20), IP administration of vehicle (saline, Days 0–4), and IV administration of vehicle (saline, Days 0–2).
Mice with established tumors were selected and divided into groups on Day −1 or Day 0, so that the mean tumor volumes were similar across groups. Body weights and tumor volumes assessed on Day −1 were designated as Day 0 values. Body weight and tumor diameter were measured for each experimental group; antitumor activity was expressed as the percent inhibition of tumor growth and the percent of tumor regression (further details are outlined in the Supplementary Materials). […] Complete regression was defined as no palpable or observable tumor. […]
www.oncotarget.com Oncotarget, Supplementary Materials […]
Body weight and tumor diameter were measured group on Day 0]) in xenografted nude mice xenografted with MV4-11 cells on the indicated days for each experimental group: 1. […]
Tumor diameter was measured using a caliper and tumor 0.5% methylcellulose); 2. Oral methylcellulose (0.5%) in volume was determined by calculating the volume of an combination with IV IDR (0.5 mg/kg) and IP AraC (50 ellipsoid (ie, Length × Width2 × 0.5). The percent inhibition mg/kg); 3. […]
of tumor growth was calculated using the formula: kg) and IP AraC (50 mg/kg). […]
The percent tumor regression was calculated using […]

[5] = plasma, iv, 3 mg/kg, azacitidine in plasma, gilteritinib 3, azacitidine 3 mg/kg
[6] = plasma, iv, azacitidine in plasma, doses gilteritinib 3, azacitidine 0 mg/kg
[7] = tumor, iv, 3 mg/kg, azacitidine in tumor, gilteritinib 3, azacitidine 3 mg/kg
[8] = table title day 21, Aza experiment: oral gilteritinib 30 mg/kg/day Days 0-16, IV Aza 3 mg/kg/day Days 0-4
[9] = plasma, po, 3 mg/kg, gilteritinib in plasma, gilteritinib 3 mg/kg, AraC 0, IDR 0
[10] = plasma, po, 3 mg/kg, gilteritinib in plasma, gilteritinib 3, AraC 50, IDR 0.5 mg/kg
[11] = plasma, po, 3 mg/kg, gilteritinib in plasma, gilteritinib 3, azacitidine 0 mg/kg
[12] = plasma, po, 3 mg/kg, gilteritinib in plasma, gilteritinib 3, azacitidine 3 mg/kg
[13] = tumor, po, 3 mg/kg, gilteritinib in tumor, gilteritinib 3 mg/kg, AraC 0, IDR 0
[14] = tumor, po, 3 mg/kg, gilteritinib in tumor, gilteritinib 3, AraC 50, IDR 0.5 mg/kg
[15] = tumor, po, 3 mg/kg, gilteritinib in tumor, gilteritinib 3, azacitidine 0 mg/kg
[16] = tumor, po, 3 mg/kg, gilteritinib in tumor, gilteritinib 3, azacitidine 3 mg/kg

AUC24 ratio ([3]; azacitidine in plasma): 0.87 | AUC24 ratio ([3]; azacitidine in tumor): 1.17 | AUC24 ([3]; azacitidine in tumor, doses gilteritinib 3, azacitidine 0 mg/kg): 323 ng·h/g | AUC24 ([3]; azacitidine in tumor, gilteritinib 3, azacitidine 3 mg/kg): 378 ng·h/g | Cmax [3, 5]: 3440 ng/mL | Tmax [3, 5]: 0.08 h | AUC [3, 5]: 1610 ng·h/mL | Cmax [3, 6]: 3390 ng/mL | Tmax [3, 6]: 0.08 h | AUC [3, 6]: 1850 ng·h/mL | Cmax [3, 7]: 96.8 ng/g | Tmax [3, 7]: 0.5 h | Cmax ([3]; tumor, iv, azacitidine in tumor): 61.3 ng/g | Tmax ([3]; tumor, iv, azacitidine in tumor, doses gilteritinib 3, azacitidine 0 mg/kg): 0.08 h
SMILES: Nc1ncn([C@@H]2O[C@H](CO)[C@@H](O)[C@H]2O)c(=O)n1 [Aza, Azacitidine]
mean percentage of annexin V-positive cells ([1]; single agent: IDR 3 nM, AraC 100 nM or Aza 1000 nM): 21.9% | expression of MCL-1, BCL2L10, and survivin [2]: little effect | Inhibition of Tumor Growth [4, 8]: 37%

difference in PK profile alone versus in combination ([3]; alone or in combination with AraC/IDR or Aza): no discernable difference | AUC24 ([3]; gilteritinib in tumor, gilteritinib 3 mg/kg, AraC 0, IDR 0): 6430.2 ng·h/g | AUC24 ([3]; gilteritinib in tumor, gilteritinib 3, AraC 50, IDR 0.5 mg/kg): 6639.0 ng·h/g | AUC24 ([3]; gilteritinib in tumor, gilteritinib 3, azacitidine 0 mg/kg): 3821 ng·h/g | AUC24 ([3]; gilteritinib in tumor, gilteritinib 3, azacitidine 3 mg/kg): 3964 ng·h/g | Cmax [3, 9]: 21.3 ng/mL | Tmax [3, 9]: 2 h | AUC [3, 9]: 156 ng·h/mL | Cmax [3, 10]: 22.3 ng/mL | Tmax [3, 10]: 2 h | AUC [3, 10]: 199 ng·h/mL | Cmax [3, 11]: 11 ng/mL | Tmax [3, 11]: 2 h | AUC [3, 11]: 65.8 ng·h/mL | Cmax [3, 12]: 10.1 ng/mL | Tmax [3, 12]: 2 h | AUC [3, 12]: 69.1 ng·h/mL | Cmax [3, 13]: 677 ng/g | Tmax [3, 13]: 2 h | Cmax [3, 14]: 437 ng/g | Tmax [3, 14]: 4 h | Cmax [3, 15]: 387 ng/g | Tmax [3, 15]: 4 h | Cmax [3, 16]: 349 ng/g | Tmax [3, 16]: 4 h | time after administration at which plasma concentrations peaked ([3]; plasma, alone or in combination with AraC/IDR or Aza): 2 h | concentration in tumor fraction versus plasma fraction ([3]; xenografted mice): higher in the tumor fraction
SMILES: CCc1nc(C(N)=O)c(Nc2ccc(N3CCC(N4CCN(C)CC4)CC3)c(OC)c2)nc1NC1CCOCC1 [Gilteritinib]
percentage of annexin V-positive cells ([1]; gilteritinib alone 30 nM): 32.0% | percentage of annexin V-positive cells ([1]; gilteritinib alone 100 nM): 52.4% | expression of MCL-1, BCL2L10, and survivin [2]: strongly inhibited | Inhibition of Tumor Growth ([4]; by Day 16, gilteritinib 30 mg/kg alone (both experiments)): ≥ 90% | Inhibition of Tumor Growth ([4]; table title day 21, AraC/IDR experiment: oral gilteritinib 30 mg/kg/day Days 0-15, IP AraC 50 mg/kg/day Days 0-4, IV IDR 0.5 mg/kg/day Days 0-2): 93% | Inhibition of Tumor Growth [4, 8]: 90%
